Results reported in patent publication US20240270762A1, “PENICILLIN-BINDING PROTEIN INHIBITORS” (priority 2021, published 2024).
Converted amounts (≈) assume the structure as drawn. Where two headings read alike, the source gives them in different places.

What was measured:
N. gonorrhoeae FA1090 = experiment: Liquid broth MIC in Fastidious broth; details: Neisseria gonorrhoeae
N. gonorrhoeae WHO G = experiment: Liquid broth MIC in Fastidious broth; details: Neisseria gonorrhoeae
N. gonorrhoeae WHO Z = experiment: Liquid broth MIC in Fastidious broth; details: Neisseria gonorrhoeae
[1] = biological target: T1, PBP1a from Acinetobacter baumannii (ATCC 19606) (Acinetobacter baumannii, UniProt A0ABX6CK30); experiment: Bocillin-FL fluorescence polarization competition binding, A. baumannii PBP1a; details: fluorescence polarization competition binding assay using Bocillin-FL; read-out: A. baumannii PBP1a Potency
T1 sequence (A0ABX6CK30 1-851): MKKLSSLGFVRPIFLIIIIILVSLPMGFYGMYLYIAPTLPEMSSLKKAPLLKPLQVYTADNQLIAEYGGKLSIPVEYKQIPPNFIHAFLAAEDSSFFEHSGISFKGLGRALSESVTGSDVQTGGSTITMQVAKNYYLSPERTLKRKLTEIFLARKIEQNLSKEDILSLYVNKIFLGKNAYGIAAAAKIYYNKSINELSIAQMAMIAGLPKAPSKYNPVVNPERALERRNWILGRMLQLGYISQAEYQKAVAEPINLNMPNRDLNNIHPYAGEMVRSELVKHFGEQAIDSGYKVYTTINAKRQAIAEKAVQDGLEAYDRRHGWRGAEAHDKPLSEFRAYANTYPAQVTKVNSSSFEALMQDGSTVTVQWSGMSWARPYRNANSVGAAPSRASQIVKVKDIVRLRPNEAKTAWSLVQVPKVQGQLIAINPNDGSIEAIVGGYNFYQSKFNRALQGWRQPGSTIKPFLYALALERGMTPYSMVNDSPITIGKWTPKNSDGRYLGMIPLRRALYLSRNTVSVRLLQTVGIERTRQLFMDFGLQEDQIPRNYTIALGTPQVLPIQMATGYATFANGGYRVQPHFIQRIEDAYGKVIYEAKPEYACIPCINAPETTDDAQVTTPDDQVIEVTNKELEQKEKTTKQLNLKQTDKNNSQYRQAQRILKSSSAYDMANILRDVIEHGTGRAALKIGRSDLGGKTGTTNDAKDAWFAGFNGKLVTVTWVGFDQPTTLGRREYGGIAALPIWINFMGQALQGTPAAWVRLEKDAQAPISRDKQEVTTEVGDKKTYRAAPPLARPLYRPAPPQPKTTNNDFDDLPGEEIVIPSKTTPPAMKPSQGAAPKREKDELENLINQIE
Excerpt: To determine the ability of boronic acid-based test PBP inhibitors to bind Penicillin Binding Proteins (PBPs), Bocillin-FL (fluorescently-labeled penicillin V; ThermoFisher Scientific) was used in a fluorescence polarization (FP) competition binding assay to assess inhibitor binding to PBP3 from Escherichia coli (K-12), PBP3 from Pseudomonas aeruginosa (PAO1), PBP1a and PBP3 from Acinetobacter baumannii (ATCC 19606), and PBP2 from Neisseria gonorrhoeae (FA19). PBPs were cloned and purified as described previously (E. coli PBP3, King, D. T, et al., ACS Infectious Diseases 2015, 1, 175-184; P. aeruginosa PBP3, Han et. al., PNAS 2010, 107 (51), 22002-22007; A. baumannii PBPs, Penwell et. al., Antimicrob. Agents Chemother. 2015, 59 (3), 1680-1689; N. gonorrhoeae PBP2, Singh et. al., J. Biol. Chem. 2019, 294 (38), 14020-14032). To establish assay conditions for competition binding, enzyme titration/saturation binding experiments were initially performed. Bocillin-FL was prepared at 0.2 μM in a buffer comprised of 50 mM Hepes (pH 8.0), 300 mM NaCl and 10% (v/v) glycerol for reactions with E. coli, P. aeruginosa and N. gonorrhoeae PBPs, and 25 mM Tris (pH 8.0), 200 mM NaCl, 10% (v/v) glycerol and 0.005% (v/v) Tween 20 for reactions with A. baumannii PBPs. Saturation binding was performed by mixing 40 μl of PBP solutions ranging in concentrations from 0-24 μM with 40 μl of the 0.2 μM Bocillin-FL solution, in individual wells of a black 384-well microplate. FP was measured immediately upon mixing (Excitation, 490 nm; Emission, 520 nm; g-factor, 0.96), using a Cytation3 (BioTek) microplate reader and measured continuously for up to 120 minutes. The FP response stabilized after 15 minutes for P. aeruginosa and A. baumannii PBP3, 30 minutes for E. coli PBP3 and A. baumannii PBP1a, and less than 1 minute for N. gonorrhoeae PBP2. […] The competition binding assay (80 μl final volume) was validated using beta-lactams and PBPs at final concentrations of: 1.5 μM for E. coli PBP3; 0.75 μM for P. aeruginosa PBP3; 1 μM for A. baumannii PBP1a; 0.2 μM for A. baumannii PBP3; and 0.25 μM for N. gonorrhoeae PBP2. Bocillin-FL was at 0.1 μM (0.05 μM with A. baumannii PBP1a) and beta-lactam concentrations ranged from 0-1,000 μM. E. coli PBP3 was incubated with increasing concentrations of ampicillin in a black 384-well microplate (Corning) for 30 minutes. P. aeruginosa PBP3 was incubated for 15 minutes with aztreonam, whereas A. baumannii PBP1a and PBP3 were incubated for 15 minutes with meropenem, and then Bocillin-FL was added followed immediately by the FP measurement for up to 60 minutes. […] The beta-lactam potency was reported as the concentration of beta-lactam required to reduce the amount of PBP bound-Bocillin-FL by 50% (EC50). […] The EC50 of aztreonam was determined to be <0.5 μM for P. aeruginosa PBP3. […] Binding assays for boronic acid PBP inhibitors were performed in an identical fashion for the respective PBPs.

P. aeruginosa ATCC 27853 = experiment: microbe, parasite or virus in culture; type: cell-based; details: Pseudomonas aeruginosa, ATCC27853, read-out: Minimum inhibitory concentration, P. aeruginosa ATCC 27853
[2] = FA1090, read-out: Minimum Inhibitory Concentration (MIC), N. gonorrhoeae FA 1090
[3] = read-out: Minimum Inhibitory Concentration (MIC), N. gonorrhoeae WHO G
[4] = read-out: Minimum Inhibitory Concentration (MIC), N. gonorrhoeae WHO Z

Row | Compound | MIC (N. gonorrhoeae FA1090; [2]) [µg/mL] | MIC (N. gonorrhoeae WHO G; [3]) [µg/mL] | MIC (N. gonorrhoeae WHO Z; [4]) [µg/mL] | IC50 [1] [µM] | MIC (P. aeruginosa ATCC 27853) [µg/mL] | MIC (N. gonorrhoeae FA1090; FA1090, read-out: Minimum Inhibitory Concentration, FA 1090) [µg/mL] | MIC (N. gonorrhoeae WHO G; read-out: Minimum Inhibitory Concentration, WHO G) [µg/mL] | MIC (N. gonorrhoeae WHO Z; read-out: Minimum Inhibitory Concentration, WHO Z) [µg/mL]
1 | O=C(O)c1cccc2c1OB(O)[C@@H](NC(=O)[C@@H](NC(=O)c1cnc3n(c1=O)CCS3)c1ccc(P(=O)(O)O)cc1)C2 (single isomer, unassigned) [Example 196] | 4 to 8 (≈ 6.66 to 13.3 µM) | 16 to 32 (≈ 26.7 to 53.3 µM) | 16 to 32 (≈ 26.7 to 53.3 µM) |  |  |  |  | 
2 | O=C(O)c1cccc2c1OB(O)[C@@H](NC(=O)[C@H](NC(=O)c1cnc3n(c1=O)CCS3)c1ccc(P(=O)(O)O)cc1)C2 (single isomer, unassigned) [Example 197] | 1 to 2 (≈ 1.67 to 3.33 µM) | 4 to 8 (≈ 6.66 to 13.3 µM) | 16 to 32 (≈ 26.7 to 53.3 µM) |  |  |  |  | 
3 | CCN1CCN(C(=O)NC(C(=O)N[C@H]2Cc3cccc(C(=O)O)c3OB2O)c2ccc(P(=O)(O)O)c(F)c2O)C(=O)C1=O (stereo partly drawn) [Example 198, (3R)-3-(2-(4-ethyl-2,3-dioxopiperazine-1-carboxamido)-2-(3-fluoro-2-hydroxy-4-phosphonophenyl)acetamido)-2-hydroxy-3,4-dihydro-2H-benzo[e][1,2]oxaborinine-8-carboxylic acid] | < 1 | < 1 | 1 to 2 (≈ 1.61 to 3.21 µM) |  |  |  |  | 
4 | CN(CCN1CCN(C(=O)N[C@@H](C(=O)N[C@H]2Cc3ccc(F)c(C(=O)O)c3OB2O)c2cc(F)c(O)c(O)c2Cl)C(=O)C1=O)Cc1nccs1 [Example 200, (R)-3-((R)-2-(2-chloro-5-fluoro-3,4-dihydroxyphenyl)-2-(4-(2-(methyl(thiazol-2-ylmethyl)amino)ethyl)-2,3-dioxopiperazine-1-carboxamido)acetamido)-7-fluoro-2-hydroxy-3,4-dihydro-2H-benzo[e][1,2]oxaborinine-8-carboxylic acid] | 1 to 2 (≈ 1.36 to 2.71 µM) | 4 to 8 (≈ 5.43 to 10.9 µM) | 16 to 32 (≈ 21.7 to 43.4 µM) | > 250 | < 1 |  |  | 
5 | CN(CCN1CCN(C(=O)N[C@@H](C(=O)N[C@H]2Cc3ccc(F)c(C(=O)O)c3OB2O)c2cc(F)c(O)c(O)c2Cl)C(=O)C1=O)Cc1cccnc1 [Example 201, (R)-3-((R)-2-(2-chloro-5-fluoro-3,4-dihydroxyphenyl)-2-(4-(2-(methyl(pyridin-3-ylmethyl)amino)ethyl)-2,3-dioxopiperazine-1-carboxamido)acetamido)-7-fluoro-2-hydroxy-3,4-dihydro-2H-benzo[e][1,2]oxaborinine-8-carboxylic acid] | 1 to 2 (≈ 1.37 to 2.74 µM) | 4 to 8 (≈ 5.47 to 10.9 µM) | > 64 | > 250 | < 1 |  |  | 
6 | O=C(NCCCN1CCN(C(=O)NC(C(=O)N[C@H]2Cc3ccc(F)c(C(=O)O)c3OB2O)c2cc(F)c(O)c(O)c2Cl)C(=O)C1=O)c1ccccc1 (stereo partly drawn) [Example 202, (3R)-3-(2-(4-(3-benzamidopropyl)-2,3-dioxopiperazine-1-carboxamido)-2-(2-chloro-5-fluoro-3,4-dihydroxyphenyl)acetamido)-7-fluoro-2-hydroxy-3,4-dihydro-2H-benzo[e][1,2]oxaborinine-8-carboxylic acid] | 4 to 8 (≈ 5.38 to 10.8 µM) | 16 to 32 (≈ 21.5 to 43 µM) | > 64 | > 250 | 2 to 4 (≈ 2.69 to 5.38 µM) |  |  | 
7 | O=C(NCCCN1CCN(C(=O)NC(C(=O)N[C@H]2Cc3ccc(F)c(C(=O)O)c3OB2O)c2cc(F)c(O)c(O)c2Cl)C(=O)C1=O)c1ccc(O)cc1 (stereo partly drawn) [Example 203, (3R)-3-(2-(2-chloro-5-fluoro-3,4-dihydroxyphenyl)-2-(4-(3-(4-hydroxybenzamido)propyl)-2,3-dioxopiperazine-1-carboxamido)acetamido)-7-fluoro-2-hydroxy-3,4-dihydro-2H-benzo[e][1,2]oxaborinine-8-carboxylic acid] | < 1 | 4 to 8 (≈ 5.26 to 10.5 µM) | 16 to 32 (≈ 21.1 to 42.1 µM) | > 250 | < 1 |  |  | 
8 | O=C(NCCCN1CCN(C(=O)NC(C(=O)N[C@H]2Cc3ccc(F)c(C(=O)O)c3OB2O)c2cc(F)c(O)c(O)c2Cl)C(=O)C1=O)c1cccc(O)c1 (stereo partly drawn) [Example 204, (3R)-3-(2-(2-chloro-5-fluoro-3,4-dihydroxyphenyl)-2-(4-(3-(3-hydroxybenzamido)propyl)-2,3-dioxopiperazine-1-carboxamido)acetamido)-7-fluoro-2-hydroxy-3,4-dihydro-2H-benzo[e][1,2]oxaborinine-8-carboxylic acid] | 1 to 2 (≈ 1.32 to 2.63 µM) | 4 to 8 (≈ 5.26 to 10.5 µM) | 16 to 32 (≈ 21.1 to 42.1 µM) |  | < 1 |  |  | 
9 | CN(CCN1CCN(C(=O)N[C@@H](C(=O)N[C@H]2Cc3ccc(F)c(C(=O)O)c3OB2O)c2cc(F)c(O)c(O)c2Cl)C(=O)C1=O)Cc1cncc(O)c1 [Example 208, (R)-3-((R)-2-(2-chloro-5-fluoro-3,4-dihydroxyphenyl)-2-(4-(2-(((5-hydroxypyridin-3-yl)methyl)(methyl)amino)ethyl)-2,3-dioxopiperazine-1-carboxamido)acetamido)-7-fluoro-2-hydroxy-3,4-dihydro-2H-benzo[e][1,2]oxaborinine-8-carboxylic acid] | 1 to 2 (≈ 1.34 to 2.68 µM) | 4 to 8 (≈ 5.36 to 10.7 µM) | 16 to 32 (≈ 21.4 to 42.8 µM) |  | < 1 |  |  | 
10 | O=C(CN1CCN(C(=O)NC(C(=O)N[C@H]2Cc3ccc(F)c(C(=O)O)c3OB2O)c2cc(F)c(O)c(O)c2Cl)C(=O)C1=O)NCc1ccc(O)cc1 (stereo partly drawn) [Example 236, (3R)-3-(2-(2-chloro-5-fluoro-3,4-dihydroxyphenyl)-2-(4-(2-((4-hydroxybenzyl)amino)-2-oxoethyl)-2,3-dioxopiperazine-1-carboxamido)acetamido)-7-fluoro-2-hydroxy-3,4-dihydro-2H-benzo[e][1,2]oxaborinine-8-carboxylic acid] |  |  |  | > 250 |  |  |  | 
11 | O=C(NCCN1CCN(C(=O)NC(C(=O)N[C@H]2Cc3ccc(F)c(C(=O)O)c3OB2O)c2cc(F)c(O)c(O)c2Cl)C1=O)Nc1cccc(O)c1 (stereo partly drawn) [Example 249, (3R)-3-(2-(2-chloro-5-fluoro-3,4-dihydroxyphenyl)-2-(3-(2-(3-(3-hydroxyphenyl)ureido)ethyl)-2-oxoimidazolidine-1-carboxamido)acetamido)-7-fluoro-2-hydroxy-3,4-dihydro-2H-benzo[e][1,2]oxaborinine-8-carboxylic acid] |  |  |  |  | 2 to 4 (≈ 2.73 to 5.46 µM) | 1 to 2 (≈ 1.36 to 2.73 µM) | 16 to 32 (≈ 21.8 to 43.7 µM) | 16 to 32 (≈ 21.8 to 43.7 µM)
